{
  "source": "patent US20100035796A1",
  "about": "(priority 2005, published 2010)",
  "key": {"steroid sulphatase": {"target": "T1, steroid sulphatase (Homo sapiens, UniProt P08842)", "T1 sequence (P08842 22-583)": "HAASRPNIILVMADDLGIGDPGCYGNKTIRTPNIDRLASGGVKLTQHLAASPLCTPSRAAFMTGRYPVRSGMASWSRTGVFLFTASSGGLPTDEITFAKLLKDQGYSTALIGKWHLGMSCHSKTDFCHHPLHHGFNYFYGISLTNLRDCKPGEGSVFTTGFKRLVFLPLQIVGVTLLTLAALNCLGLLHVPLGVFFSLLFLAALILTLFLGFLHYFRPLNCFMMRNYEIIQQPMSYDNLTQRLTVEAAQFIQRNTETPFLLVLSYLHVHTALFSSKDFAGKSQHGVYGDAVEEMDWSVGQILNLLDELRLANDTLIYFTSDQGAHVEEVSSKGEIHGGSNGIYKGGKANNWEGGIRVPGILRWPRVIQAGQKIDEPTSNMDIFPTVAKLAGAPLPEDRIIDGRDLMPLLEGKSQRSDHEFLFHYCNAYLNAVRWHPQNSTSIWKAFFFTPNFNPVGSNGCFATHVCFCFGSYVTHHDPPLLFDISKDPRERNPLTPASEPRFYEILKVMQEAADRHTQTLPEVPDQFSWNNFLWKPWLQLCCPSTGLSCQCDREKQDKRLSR", "settings": "R. P. Boivin et al., J. Med. Chem. 2000; cited from earlier work"}, "sun-damaged skin": {"system": "sun-damaged skin", "settings": "hairless mice; Gendimenico et al. 2002; cited from earlier work"}, "estrogen receptor": {"system": "estrogen receptor", "assay": "Activity on the estrogen receptor in ERE-luc mice, photometric analysis with CCD camera", "assay_type": "in vivo", "method": "(§1) The activity of two compounds of the invention, 17α-(5-acetoxy)pent-1-inyl-1,3,5(10)-estratriene-3,17β-diol and 17α-(5-propanoyl-oxy)pent-1-inyl-1,3,5(10)-estratriene-3,170-diol, was determined in a cell culture and in a transgenic animal model using female adult ERE-luc mice which were ovariectomised or sham-operated three weeks before the experiment. This model allows the anti-inflammatory activity, effect on the estrogen receptor and wound-healing activity to be evaluated.\n(§2) Each of the two test compounds was dissolved immediately before use in 99% ethanol, and a 10 mM mother solution was prepared. The successive dilutions were performed in saline solution (0.9% NaCl in bidistilled water).\nThe activity on the estrogen receptor was evaluated by photometric analysis with CCD chamber after 0, 24, 48 and 72 hours. The animals were then killed, and the tissue surrounding the wound was removed."}, "cutaneous wound": {"system": "cutaneous wound", "assay": "Wound-healing activity: histological sections of the tissue surrounding the wound", "assay_type": "in vivo, mice", "method": "as §1, §2\nHistological sections were prepared from the tissue surrounding the wound to evaluate the wound-healing activity. For the histological preparation, the tissue was fixed in 10% formalin (in buffer solution) and embedded in paraffin wax. The sections were stained with haematoxylin-eosin to evaluate the state of inflammation and wound-healing. The sections were also used to quantify the state of infiltration of the macrophages 4 days after the wound, using anti-Mac2 antibodies, and for further staining designed to detect the state of wound-healing and characterise the cells present in the wound area."}, "MIF": {"system": "MIF", "assay": "Expression of inflammation markers in the wound model (second study): MIF", "assay_type": "in vivo, mice"}, "CD74": {"system": "CD74", "assay": "Expression of inflammation markers in the wound model (second study): CD74", "assay_type": "in vivo, mice"}, "TGF-β": {"system": "TGF-β", "assay": "Expression of inflammation markers in the wound model (second study): TGF-β", "assay_type": "in vivo, mice"}, "ERα": {"system": "ERα", "assay": "Expression of estrogen receptors in ovariectomised animals: ERα-positive cells", "assay_type": "in vivo, mice"}, "ERβ": {"system": "ERβ", "assay": "Expression of estrogen receptors in ovariectomised animals: ERβ-positive cells", "assay_type": "in vivo, mice"}, "IL-6": {"system": "IL-6", "assay": "Expression of inflammation markers in the wound model (second study): IL-6", "assay_type": "in vivo, mice"}, "wound": {"system": "wound", "settings": "cited from earlier work; for wound-healing on topical use: used topically, Ashcroft et al. 2003b"}},
  "data": [
    {"smiles": "C[C@]12CC[C@@H]3c4ccc(O)cc4CC[C@H]3[C@@H]1CC[C@@]2(O)C#CCBr", "note": "[17α-(3-bromopropin-1-yl)estradiol]", "values": [
      {"measurement": "inhibitory effect on steroid sulphatase", "setting": "steroid sulphatase", "value": "high"}
    ]},
    {"smiles": "CC12CCC3c4ccc(O)cc4CCC3C1CCC2(O)C#CCO", "note": "(stereo not drawn) [17α-(3-hydroxypropin-1-yl)estradiol]", "values": [
      {"measurement": "inhibitory effect on steroid sulphatase", "setting": "steroid sulphatase", "value": "very low"}
    ]},
    {"smiles": "C[C@]12CC[C@@H]3c4ccc(O)cc4CC[C@H]3[C@@H]1CC[C@H]2O", "note": "[17α-estradiol]", "values": [
      {"measurement": "repair of sun-damaged skin", "setting": "sun-damaged skin", "value": "repair the sun-damaged skin of hairless mice"}
    ]},
    {"smiles": "CC(=O)OCCCC#C[C@]1(O)CC[C@H]2[C@@H]3CCc4cc(O)ccc4[C@H]3CC[C@@]21C", "note": "[Example 7, 17α-(5-acetoxy)pent-1-ynyl-1,3,5(10)-estratrien-3,17β-diol]", "values": [
      {"measurement": "estrogenic effect in areas other than the area of administration (systemic activity)", "setting": "estrogen receptor; mouse, in vivo", "value": "does not have a detectable estrogenic effect"},
      {"measurement": "uterotrophic activity", "setting": "estrogen receptor; mouse, in vivo", "value": "does not present uterotrophic activity"},
      {"measurement": "efficacy of the wound-healing effect", "setting": "cutaneous wound; second study, 5 animals per group, compared with estradiol", "value": "statistically similar to that of the natural hormone"},
      {"measurement": "effect on the wound-healing process", "setting": "cutaneous wound; summary statement", "value": "marked effect on the wound-healing process"},
      {"measurement": "expression of MIF", "setting": "MIF", "value": "significantly inhibited the expression"},
      {"measurement": "expression of CD74", "setting": "CD74", "value": "significantly inhibited the expression"},
      {"measurement": "expression of TGF-β", "setting": "TGF-β", "value": "significantly inhibited the expression"},
      {"measurement": "number of cells that test positive for the α estrogen receptor", "setting": "ERα", "value": "does not act on the number of cells that test positive for the α receptor"},
      {"measurement": "number of cells that express the β estrogen receptor", "setting": "ERβ", "value": "does not significantly reduce the number of cells that express the β receptor"}
    ]},
    {"smiles": "CCC(=O)OCCCC#CC1(O)CCC2C3CCc4cc(O)ccc4C3CCC21C", "note": "(stereo not drawn) [Example 8, 17α-(5-Propanoyloxy)pent-1-ynyl-1,3,5(10)-estratrien-3,17β-diol]", "values": [
      {"measurement": "estrogenic effect in areas other than the area of administration (systemic activity)", "setting": "estrogen receptor; CCD camera, intradermal in loco", "value": "a slight systemic activity"}
    ]},
    {"smiles": "C[C@]12CC[C@@H]3c4ccc(O)cc4CC[C@H]3[C@@H]1CC[C@@H]2O", "note": "[estradiol, 17beta-estradiol]", "values": [
      {"measurement": "expression of MIF", "setting": "MIF", "value": "limit the expression of all the inflammation proteins studied"},
      {"measurement": "expression of CD74", "setting": "CD74", "value": "limit the expression of all the inflammation proteins studied"},
      {"measurement": "expression of TGF-β", "setting": "TGF-β", "value": "limit the expression of all the inflammation proteins studied"},
      {"measurement": "expression of IL-6", "setting": "IL-6", "value": "limit the expression of all the inflammation proteins studied"},
      {"measurement": "number of cells that express the β estrogen receptor", "setting": "ERβ", "value": "increases the number of cells that test positive for both receptors"},
      {"measurement": "wound-healing on topical use", "setting": "wound", "value": "promote wound-healing"},
      {"measurement": "repair of sun-damaged skin", "setting": "sun-damaged skin", "value": "repair the sun-damaged skin of hairless mice"}
    ]},
    {"smiles": "C[C@]12CC[C@@H]3c4ccc(O)cc4CC[C@H]3[C@@H]1C[C@@H](O)[C@@H]2O", "note": "[estriol]", "values": [
      {"measurement": "activity relative to estradiol", "setting": "wound; Shah et al. 2001", "value": "much less active than estradiol"},
      {"measurement": "wound-healing on topical use", "setting": "wound", "value": "promote wound-healing"}
    ]}
  ]
}
